From US20240174670A1, “4-AMINO-6-OXO-PYRIDAZINE DERIVATIVES MODULATING NLRP3” (JANSSEN PHARMACEUTICA NV, priority 2021, published 2024)

Key:
TNF = assay: PBMC assay, TNF release after LPS stimulation; assay type: cell-based; conditions: human PBMCs, 30 min preincubation, 100 ng/ml LPS for 6 hrs, supernatant, MSD technology
Experimental: (§1) Peripheral venous blood was collected from healthy individuals and human peripheral blood mononuclear cells (PBMCs) were isolated from blood by Ficoll-Histopaque (Sigma-Aldrich, A0561) density gradient centrifugation. After isolation, PBMCs were stored in liquid nitrogen for later use. Upon thawing, PBMC cell viability was determined in growth medium (RPMI media supplemented with 10% fetal bovine serum, 1% Pen-Strep and 1% L-glutamine). Compounds were spotted in a 1:3 serial dilution in DMSO and diluted to the final concentration in 30 μl medium in 96 well plates (Falcon, 353072). PBMCs were added at a density of 7.5×10^4 cells per well and incubated for 30 min in a 5% CO2 incubator at 37 ° C. LPS stimulation was performed by addition of 100 ng/ml LPS (final concentration, Invivogen, tlrl-smlps) for 6 hrs followed by collection of cellular supernatant and the analysis of IL-1β[…] and TNF cytokines levels (uμ) via MSD technology according to manufacturers' guidelines (MSD, K151A0H).
(§2) IC50 and AC50 values (for IL-1β) and EC50 and AC50 values (TNF) were obtained on compounds of the invention/examples, and the AC50 values are depicted in the following table: […]

IL-1β = assay: PBMC assay, IL-1β release after LPS stimulation; assay type: cell-based; conditions: human PBMCs, 30 min preincubation, 100 ng/ml LPS for 6 hrs, supernatant, MSD technology, read-out: IL1β AC50
Experimental: The activity of a compound according to the present invention can be assessed by in vitro methods.
as §1, §2

## CC(C)c1nn(CC(=O)Nc2ccc3nncn3c2)c(=O)cc1NCC(F)(F)F [Compound 4]
TNF
  AC50: > 10 µM
IL-1β
  AC50: > 15 µM

## CC(C)c1nn(CC(=O)Nc2ccc3nncn3c2)c(=O)cc1Nc1ccc2oncc2c1 [Compound 41, N-([1,2,4]triazolo[4,3-a]pyridin-6-yl)-2-(4-(benzo[d]isoxazol-5-ylamino)-3-isopropyl-6-oxopyridazin-1(6H)-yl)acetamide]
TNF
  AC50: > 20 µM
IL-1β
  AC50: > 20 µM

## CC(C)c1nn(CC(=O)Nc2ccc3nncn3c2)c(=O)cc1Nc1cccc2ocnc12 [Compound 42]
TNF
  AC50: > 20 µM
IL-1β
  AC50: > 20 µM

## CC(C)c1nn(CC(=O)Nc2ccc3nncn3c2)c(=O)cc1NC1CC(C)(C)C1 [Compound 31, N-([1,2,4]triazolo[4,3-a]pyridin-6-yl)-2-(4-((3,3-dimethylcyclobutyl)amino)-3-isopropyl-6-oxopyridazin-1(6H)-yl)acetamide]
TNF
  AC50: > 20 µM
IL-1β
  AC50: > 20 µM

## CC(C)c1nn(CC(=O)Nc2ccc3nncn3c2)c(=O)cc1N1CCC(F)(F)CC1 [Compound 12]
TNF
  AC50: > 10 µM
IL-1β
  AC50: > 15 µM

## CC(C)c1nn(CC(=O)Nc2ccc3nncn3c2)c(=O)cc1N1CCC(C)(O)CC1 [Compound 36]
TNF
  AC50: > 20 µM
IL-1β
  AC50: > 20 µM

## CC(C)c1nn(CC(=O)Nc2ccc3nncn3c2)c(=O)cc1N1CC(C)(F)C1 [Compound 32]
TNF
  AC50: > 20 µM
IL-1β
  AC50: 1.37 µM

## CC(C)CNc1cc(=O)n(CC(=O)Nc2ccc3nncn3c2)nc1C(C)C [Compound 46]
TNF
  AC50: > 20 µM
IL-1β
  AC50: 1.36 µM

## CC(C)c1nn(CC(=O)Nc2ccc3nncn3c2)c(=O)cc1Nc1cccc(C2CC2)n1 [Compound 38, N-([1,2,4]triazolo[4,3-a]pyridin-6-yl)-2-(4-((6-cyclopropylpyridin-2-yl)amino)-3-isopropyl-6-oxopyridazin-1(6H)-yl)acetamide]
TNF
  AC50: > 4 µM
IL-1β
  AC50: > 4 µM

## CC(C)c1nn(CC(=O)Nc2ccc3nncn3c2)c(=O)cc1N1CCC2(CCCO2)C1 (stereo not drawn) [Compound 52]
TNF
  AC50: > 20 µM
IL-1β
  AC50: > 20 µM

## CC(C)c1nn(CC(=O)Nc2ccc3nncn3c2)c(=O)cc1N1CCC(c2ccncc2)C1 (stereo not drawn) [Compound 65]
TNF
  AC50: > 20 µM
IL-1β
  AC50: > 20 µM

## CC(C)c1nn(CC(=O)Nc2ccc3nncn3c2)c(=O)cc1N1CCCCC1C (stereo not drawn) [Compound 54]
TNF
  AC50: > 20 µM
IL-1β
  AC50: 3.62 µM
